Tests used:
Type in all cases: cell-based
[1] = system: mCherry-GAL9 expressing U2OS cells; assay: GAL9 recruitment assay, U2OS; conditions: calculated mean from >3 independent exp.
Procedure, shortened: (§1)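 Using cell lines stably carrying mCherry-GAL9, dose-response treatment begins 24 h after seeding; fixed (4% paraformaldehyde) and Hoechst-stained cells are imaged by confocal microscopy and GAL9 structures counted. Each treatment runs in duplicate wells over three experiments.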

[2] = system: cell lines carrying an mCherry-GAL9-reporter; assay: GAL9 puncta formation upon EEE dose escalation (images); conditions: dose escalation 0.31 to 10 μM
Experimental: We further studied endosomal leakage by quantifying GAL9 recruitment upon EEE dose escalation, from 0.31 to 10 μM. For this purpose, we used cell lines carrying an mCherry-GAL9-reporter, where endosomal rupture could be quantified by measuring GAL9 clustering as a puncta event representative of endosomal remodeling.
Experiments assessing GAL9 localization as an indicator for endosomal remodeling were performed as previously described[15] using 8× stablemCherry-GAL9 expressing cell lines, SHSY5Y, U2OS, 16HBE, NCI-H358, HuH7, HepG2, HEK293, and HeLa. For mCherry-GAL9 recruitment, 3,000 or 6,500 cells/well (depending upon cell line) were seeded into 384-well CellCarrier Ultra plates 24 h prior to treatment (PerkinElmer, catalog no. 6007558). An Echo 655T acoustic dispenser (Labcyte) was used for EEE dose-response preparation by transferring to the cell plate. At assay endpoints, cells were PBS washed, 4% paraformaldehyde fixed at room temperature […] (VWR, catalog no. 9713.1000), and nuclei stained with PBS +1 μg/mL Hoechst 33342 (Thermo Fisher Scientific, catalog no. H21492).
Imaging was performed using a spinning-disk confocal microscope (Yokogawa: CV8000) with a ×20w objective (numerical aperture 1.0). Cells and mCherry-GAL9 structure identification and quantification were done using Columbus image-analysis software (PerkinElmer version 2.9.0). […]

[3] = system: mCherry-GAL9 expressing 16HBE cells; assay: GAL9 recruitment assay, 16HBE; conditions: calculated mean from >3 independent exp.
Procedure, shortened: as §1

[4] = system: HeLa_Luc705 cells (pLuc/705 splice-switching reporter); assay: Functional 705-SSO delivery, luciferase splice-switching assay; conditions: for Luciferase expression compared to reference: mean from >3 independent experiments
Procedure, shortened: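 Cells seeded at 10,000/well were pre-incubated 24 h with 1–2 μM 2′-O-methyl phosphorothioate 705-SSO, then exposed to endosomal escape enhancer at the stated concentrations. After 24 h, cells were lysed in 0.1% Triton X-100 and firefly luciferase luminescence was read as the splice-correction signal. LF2000 lipofection with 100–200 nM SSO served as transfection control.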

[5] = system: HeLa_Luc705 cells; assay: Extracellular LDH release cell toxicity assay; conditions: 24-h treatment
Experimental: Further studies evaluating acute toxicity upon EEE4 treatment were performed by measuring extracellular lactate dehydrogenase (LDH) release as indicator of possible plasma membrane damage.
For measuring cell membrane damage, extracellular LDH was quantified in conditioned media collected 1 or 24 h after initiation of treatment. LDH quantification was performed following the manufacturer’s instructions (Thermo Fisher Scientific, catalog no. C20300), 0.1% Triton X-100 cell lysed was used as the positive control, and values were normalized to untreated control.

[6] = system: HeLa_Luc705 cells; assay: WST-1 cleavage cytotoxicity assay
Experimental: To better compare the two selected candidates, EEE4 and EEE8, a dose-response experiment was performed using half of the previously tested SSO concentration (1 μM). […] Dose-dependent cell toxicity was also assessed by measuring WST-1 cleavage, which occurs only in metabolically active cells. As expected, cellular viability was compromised upon treatment with high doses of EEEs.
For measuring the EEE cytotoxic effect, formazan formation was quantified upon tetrazolium salt WST-1 cleavage 1 or 24 h after initiation of treatment. As recommended by the manufacturer (Roche, catalog no. 5015944001), a 4-h WST-1 pre-incubation step was included before formazan quantification. Absorbance was measured between 420 and 480 nm, background signal was considered in the calculation, and values were normalized to untreated control.

COc1nn(C2CCNCC2)cc1Nc1ncc(F)c(-n2ccc3c(C#N)cccc32)n1 [EEE4]
Gal9 response compared to reference ([1]; EEE 0.31 µM): 0.014 | Gal9 response compared to reference ([1]; EEE 0.62 µM): 0.019 | Gal9 response compared to reference ([1]; EEE 1.25 µM): 0.083 | Gal9 response compared to reference ([1]; EEE 2.5 µM): 0.332 | Gal9 response compared to reference ([1]; EEE 5 µM): 0.572 | Gal9 response compared to reference ([1]; EEE 10 µM): 0.561 | EEE concentration with clear GAL9 puncta formation [2]: ≥ 1.25 µM | Gal9 response compared to reference ([3]; EEE 0.31 µM): 0.021 | Gal9 response compared to reference ([3]; EEE 0.62 µM): 0.039 | Gal9 response compared to reference ([3]; EEE 1.25 µM): 0.395 | Gal9 response compared to reference ([3]; EEE 2.5 µM): 0.626 | Gal9 response compared to reference ([3]; EEE 5 µM): 0.501 | Gal9 response compared to reference ([3]; EEE 10 µM): 0.146 | SSO-mediated splice-switching upon co-treatment with bafilomycin A1 ([4]; EEE4 + bafilomycin (0.5 μM) co-incubation): significantly reduced | Luciferase expression compared to reference ([4]; HeLa-Luc705 + 1 µM SSO, EEE 0.5 µM): 3.610 | Luciferase expression compared to reference ([4]; HeLa-Luc705 + 1 µM SSO, EEE 2 µM): 139.083 | Luciferase expression compared to reference ([4]; HeLa-Luc705 + 1 µM SSO, EEE 4 µM): 39.821 | Luciferase expression compared to reference ([4]; HeLa-Luc705 + 1 µM SSO, EEE 5 µM): 13.700 | Luciferase expression compared to reference ([4]; HeLa-Luc705 + 2 µM SSO, EEE 5 µM): 0.020 | Splice-switching with 24-h SSO pre-incubation relative to SSO co-treatment ([4]; dose response, luciferase readout at time points after EEE addition): 20 times | Splice-switching enhancement ([4]; using 2–2.5 μM EEE): above 100 fold | EEE concentration with slight increase in LDH release [5]: ≥ 3 µM | Cytotoxic effect by WST-1 cleavage ([6]; 24 h treatment, 2–3 μM): mild to no cytotoxic effect | Cellular toxicity by WST-1 cleavage ([6]; at efficient concentration (around 2 μM)): low cellular toxicity
